Assay results as given in patent US20130059793A1, “EGF RECEPTOR MIMICKING PEPTIDES” (BOARD OF REGENTS, THE UNIVERSITY OF TEXAS SYSTEM, priority 2010, published 2013).
Square brackets hold non-standard residues; d marks the D form. Ends that are not written are not given here.

Key:
[1] = system: EGFR ligands EGF, TGFα, and cetuximab; assay: Combinatorial CX7C phage library screening on EGFR ligands; consensus motifs (Table 1); assay type: binding; details: EGFR ligand(s) on which the overlapping consensus motif was selected
Procedure: Phage peptide screening and binding assays were performed as described (Cardó-Vila et al., 2003). A random phage peptide library displaying the insert CX7C (where X is any amino acid and C is a cysteine residue) was used for the screening; phage input was 3×10^9 transducing units (TU). Antibodies, EGF, or TGF-α (R&D Systems) were coated onto microtiter wells as described (Smith and Scott, 1993). […] Wells were washed twice with PBS, blocked with PBS containing 3% BSA for 1 hr at room temperature (RT), and incubated with the phage library in 50 μl PBS containing 1.5% BSA. After 2 hr at RT, wells were washed ten times with PBS, and phage were recovered by bacterial infection as described (Smith and Scott, 1993; Giordano et al., 2001; Cardó-Vila et al., 2003). […] Purification of phage particles and sequencing of phage single-stranded (ss) DNA were performed as described (Arap et al., 1998; Pasqualini et al., 2001). Phage ssDNA from 96 individual clones from each of the second, third, and fourth rounds of selection were prepared, and inserts were sequenced.
Peptide-matching software (Mandava et al., 2004) was used to identify motifs resembling targeted ligands. To identify motifs resembling targeted ligands among the selected sequences, the inventors used a peptide-matching software program based on RELIC, an established bioinformatics server for combinatorial peptide analysis and identification of protein-ligand interaction sites (Mandava et al., 2004), designed and implemented through Perl 5.8.1. The program calculates similarity based on a pre-defined amino acid window size (defined empirically and experimentally) between an affinity-selected peptide sequence and the target protein sequence from N-terminus to C-terminus in one-residue shifts to fit the best alignment. The peptide-protein similarity scores for each amino acid residue were calculated based on an amino acid substitution matrix modified to adjust for rare residue representation. In this case, similarity scores were calculated based on a 5-residue window, with every pentamer motif in each selected peptide compared to each pentamer segment of the protein. Empirical similarity score thresholds were set with at least three identical residues plus one similar residue between the peptide and the protein segment.
A combinatorial approach was used to identify consensus protein-interacting sites within the EGFR. […] Serial enrichment in all selections was observed (FIGS. 1A-C). Bovine serum albumin (BSA), VEGF, and irrelevant IgG served as negative controls.
A comprehensive protein similarity analysis of selected peptides (n=384) was performed to identify sequences resembling the extracellular domain of the EGFR. Overlapping consensus motifs selected in all three EGFR ligands were identified, mapped, and consolidated within the five dominant candidate regions (Cys227-Cys240, Cys283-Asp290, Cys486-Cys491, Cys547-Cys567, Cys604-Lys618; not accounting for the signal peptide, as indicated) within the primary structure of the receptor (FIG. 2A, yellow highlights).

[2] = system: polyclonal anti-CVRAC antibodies; assay: ELISA recognition of peptides by polyclonal anti-CVRAC antibodies (FIG. 4B); assay type: binding, rabbit
Description: (§1) A representative experiment is depicted. […] Bars represent mean±SEM. […] (FIG. 4C) Effect of the synthetic peptides on HN5 tumor cells. […] Viability in the absence of peptide was set to 100%. […] Bars represent mean±SEM. […] Receptors were immunoprecipitated with antibodies against phosphorylated (p) pEGFR and were immunoblotted with anti-phosphotyrosine IgG.
Rabbits were immunized with KLH-conjugated CVRAC and a purified antibody was obtained. […] The capacity of rabbit IgG against CVRAC to recognize CVRAC, D(CARVC), and EGFR was measured by ELISA.
(§2) The EGFR served as an immobilized positive control, and BSA or control peptides (CVAAC) served as immobilized negative controls.

HN5 tumor cells [3] = assay: Inhibition by peptide of the cetuximab-dependent inhibition of proliferation, HN5; assay type: cell-based, human; details: HN5, with cetuximab; 60 μM or 180 μM CVRAC, FIG. 4A
Procedure: as §1
(§3) Tumor cell lines HN5, UMSCC 10A, GEO and EF43.fgf-4 were culture in standard conditions. Viability was assessed by MTT assays (Sigma) as described (Cardó-Vila et al., 2003). […] Samples were read at 570 nm.

[4] = system: binding of cetuximab to the EGFR; assay: ELISA inhibition of binding of cetuximab to the EGFR by synthetic peptides (FIG. 3B, FIGS. 7A-C); details: for inhibition of binding of cetuximab to the EGFR: ELISA, FIG. 3B; for initial functional screen of consensus motif panel (n=15) with cetuximab: FIGS. 7A-C
Description: (§4) BSA served as an additional negative control, and the EGFR, as a positive control. […] Insertless phage served as a negative control. […] Bars represent mean±SEM.
Similar methodologies have been applied to therapeutic (Binder et al., 2006; Binder et al., 2007; Riemer et al., 2005) or diagnostic (Jaalouk et al., 2007) antibodies in a strategy that could reveal mechanisms of action (Binder et al., 2007), identify biological reagents for immunization (Riemer et al., 2005), or discover unrecognized antigens (Jaalouk et al., 2007).

cetuximab = assay: Binding of synthetic peptides to cetuximab (ELISA-based, FIG. 3A, FIG. 4B); details: FIG. 4B (peptides plated at 10 μg/ml)
Description: as §4, §1, §2

GEO tumor cells = assay: Inhibition by peptide of the cetuximab-dependent inhibition of proliferation, GEO; assay type: cell-based, human; details: with cetuximab
Procedure: as §3

[5] = system: EF43.fgf-4-derived tumors; assay: Treatment of tumor-bearing mice with peptides and peptidomimetics, tumor volume; assay type: in vivo; details: Balb/c mice, EF43.fgf-4 tumors, 750 μg/mouse/dose
Description: FIGS. 5A-B: CVRAC-targeted phage homes to tumor. (FIG. 5A) Targeting tumors versus control organs. […] An anti-phage antibody was used for staining H&E staining, with the corresponding fluorescence-based immunostaining, are shown in tumors (FIG. 5A). Tumor-bearing mice received CVRAC phage, CVAAC phage, or insertless control phage as indicated. Cohorts of tumor-bearing mice (n=5 mice/group) were used. A representative experiment is shown. Scale bar, 100 μm. (FIG. 5B) Treatment of tumor-bearing mice with peptides and peptidomimetics. Balb/c mice bearing EF43.fgf-4-derived tumors were divided into size-matched cohorts (n=7 mice/group); individual tumor volumes are represented before (black circles) and after (white circles). Peptides and peptidomimetics were administered at 750 μg/mouse/dose for 5 days. Shown are mean tumor volumes±SEM.
Selective phage homing to tumors was evaluated as described (Hajitou et al., 2006; Arap et al., 1998). […] Each cohort of mice (n=3 per experiment) with size-matched tumors received a set of test and control phage clones. After 6 h, tumor-bearing mice were perfused through the heart with 20 ml of PBS containing 4% paraformaldehyde (PFA). […] For experimental therapy, Balb/c mice bearing EF43.fgf-4-derived tumors were established, and tumor volumes were determined as described (Arap et al., 1998; Hajitou et al., 2006; Ciardiello et al., 1999). […]

[6] = Nuclear magnetic resonance (NMR)-spectroscopy interactions; assay type: binding
HN5 tumor cells [7] = assay: Cell viability/proliferation, MTT assay, HN5; assay type: cell-based, human; design: cell proliferation / viability: dose or concentration left out as unconfirmed; details: HN5, MTT, 120 h, increasing concentrations, FIG. 4C
Procedure: as §1, §3
Tumor cell lines HN5, UMSCC 10A, GEO and EF43.fgf-4 were maintained in high-glucose DMEM, supplemented with 10% heat-inactivated fetal bovine serum, 20 mM HEPES (pH 7.4), 100 IU/ml penicillin, 100 μg/ml streptomycin, and 4 mM glutamine at 5% CO2 at 37° C. EF43.fgf-4 were grown in G418 as described (Hajitou et al., 2006).

EGFR = assay: EGF-induced EGFR autophosphorylation (immunoprecipitation, anti-phosphotyrosine blot); assay type: cell-based, human; details: HN5 tumor cells, EGF 15 min, FIG. 4E
Description: as §1

Substance	Selected on [1]	also measured
AQQCSGRCRGKSPSD [synthetic EGFR-mimicking peptide]	EGF & TGFα	–
CKDTC [synthetic EGFR-mimicking peptide]	All EGFR ligands	–
CLPQAMNIT [synthetic EGFR-mimicking peptide]	Cetuximab	–
CPAGVM [synthetic EGFR-mimicking peptide]	Cetuximab	–
CQKCDPSC	Cetuximab & TGFα	–
CRKFRDEATC [synthetic EGFR-mimicking peptide]	All EGFR ligands	–
CSPEGC (also: cyclic, ring type not given here) [synthetic EGFR-mimicking peptide]	All EGFR ligands	–
CTGPGLEGCPTNGPK [synthetic EGFR-mimicking peptide]	All EGFR ligands	–
CTGRGPDNCIQ [synthetic EGFR-mimicking peptide]	All EGFR ligands	–
CVRAC [synthetic cyclic peptide, EGFR residues 283-287]	–	recognition by polyclonal anti-CVRAC antibodies [2]: recognized; inhibition of the antibody-dependent inhibition of proliferation (HN5 tumor cells [3]): concentration-dependent inhibition; inhibition of binding of cetuximab to the EGFR [4]: Concentration-dependent inhibition; initial functional screen of consensus motif panel (n=15) with cetuximab [4]: not significantly different; binding of synthetic peptide to cetuximab (cetuximab): specifically bind to cetuximab; inhibition of the antibody-dependent inhibition of proliferation (GEO tumor cells): concentration-dependent inhibition; therapeutic efficacy, tumor growth [5]: showed therapeutic efficacy in vivo; interactions by NMR-spectroscopy [6]: Low-affinity interactions (micromolar range); cell proliferation / viability (HN5 tumor cells [7]): proliferated much less
CVRACGAD (not fully specified (bridges); also: cyclic, ring type and places not given here) [synthetic cyclic peptide, EGFR residues 283-290]	All EGFR ligands	inhibition of binding of cetuximab to the EGFR [4]: Concentration-dependent inhibition; initial functional screen of consensus motif panel (n=15) with cetuximab [4]: best concentration-dependent ligand peptide; binding of synthetic peptide to cetuximab (cetuximab): specifically bind to cetuximab
D(CAAVC) ([dC][dA][dA][dV][dC]; cysteine pairing not given here; also: peptidomimetic) [negative control peptidomimetic with a mutation corresponding to EGFR Arg285Ala, reference compound]	–	EGF-induced tyrosine phosphorylation of the EGFR (EGFR): not
IIRGRTK [synthetic EGFR-mimicking peptide]	EGF & TGFα	–
IQCAHYIDGPHC [synthetic EGFR-mimicking peptide]	All EGFR ligands	–
PNGSCW [synthetic EGFR-mimicking peptide]	Cetuximab	–
QRNYDLSFL [synthetic EGFR-mimicking peptide]	EGF & TGFα	–
THTPPLDPQEL [synthetic EGFR-mimicking peptide]	EGF & TGFα	–
